Measured values taken from US11389452B2, “Methods for increasing blood plasma 2′-deoxyuridine (dUrd) and thymidylate synthase inhibition” (Isofol Medical AB, priority 2017, dated 2022).

Legend:
TS = conditions: cited from earlier work
colorectal cancer = conditions: cited from earlier work
[1] = target: T1, thymidylate synthase (TS) (Homo sapiens, UniProt P04818); assay: Incremental plasma dUrd (surrogate marker of TS inhibition) 24 hours after bolus 5-FU plus folate in mCRC patients, by LC-MS/MS; assay type: in vivo; conditions: for Mean (t24 − t0) plasma dUrd: 24 hours
T1 construct: endogenous in cells; host or cells: patients with metastatic colorectal cancer (in vivo); plasma sampled
T1 sequence (P04818 2-313 limits assumed): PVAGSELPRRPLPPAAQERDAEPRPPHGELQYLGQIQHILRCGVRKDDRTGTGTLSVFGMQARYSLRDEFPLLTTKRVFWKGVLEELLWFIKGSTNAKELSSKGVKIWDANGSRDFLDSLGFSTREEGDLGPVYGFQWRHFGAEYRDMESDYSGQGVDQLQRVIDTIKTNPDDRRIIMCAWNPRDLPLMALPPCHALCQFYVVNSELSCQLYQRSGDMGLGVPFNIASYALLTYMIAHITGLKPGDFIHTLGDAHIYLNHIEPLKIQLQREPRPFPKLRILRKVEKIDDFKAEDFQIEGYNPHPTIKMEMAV
Method: The safety and efficacy of [6R]-5,10-methylenetetrahydrofolate ([6R]-MTHF) is analyzed in an open-label, multiple-site, Phase I/II Dose Cohort Trial (ISO-CC-005) in patients with stage IV colorectal cancer (mCRC) to determine the safe and tolerable i.v. bolus dose of 6R-MTHF in combination with standard doses of 5-FU (500 mg/m^2) alone or in combination with a fixed dose of Bevacizumab, Oxaliplatin or Irinotecan in patients with stage IV colorectal cancer. Among groups of patients (n≥3) ascending 6R-MTHF doses of 30-240 mg/m^2 BSA are being evaluated in the presence of various permutations of the cytotoxics, 5-FU alone or 5-FU plus oxaliplatin, bevacizumab or irinotecan given at standard dose levels. The study is expected to be completed by year end 2017. A summary of the study design and each study arm is depicted below in Table 1.
In Gothenburg, for almost two decades, clinical, treatment and outcomes data on all patients with CRC have been collected. Plasma and tissue samples have been stored in a biobank under appropriate physical conditions for long term storage. The database and the biobank operate under the auspices of the relevant ethical and regulatory permissions. Patients having been treated with the standard 5-FU dose, 500 mg/m^2 plus i.v. bolus LV, 60 mg/m^2 (equivalent to 30 mg/m^2 of LLV) were randomly drawn from the databank.
The present study is a historical group comparison study. All patients have been treated with a standard dose of 500 mg 5-FU given as a bolus injection plus the respective folate 6R-MTHF or LV also given as bolus injections.
All patients have been measured during two consecutive treatment cycles with 5-FU. Values for dUrd were measured immediately before injection of 5-FU (t0) and after 24 hours (t24). Mean values and standard deviations for differences between t24 and t0 were calculated for the patients on each dose level of 30 and 60 mg/m^2 6R-MTHF, respectively. Some values have also been assayed and calculated for 240 mg/m^26R-MTHF.
Twenty-four patients with metastatic colorectal cancer (mCRC) treated with 5-FU plus 60 mg/m^2 LV were drawn at random from the data base and levels of dUrd were determined at t0 and t24 from two treatment cycles for each patient and the mean values and standard deviations for the differences between t24 and t0 were calculated in the same way as for the 6R-MTHF patients. Since LV is a 50:50 mixture of the natural (1-formyl-tetrahydrofolate) and unnatural (d-formyl-tetrahydrofolate) isomers the active isomer constitutes one half of the LV doses given. The molecular weights for LV and 6R-MTHF are very similar and therefore 60 mg of LV may be considered as equimolar with 30 mg of 6R-MTHF.
The differences between all four groups were tested by means of the Friedman two-way analysis of variance and thereafter the difference between the two equimolar groups LV 60 mg/m^2 and 6R-MTHF 30 mg/m^2 was tested by means of the Mann-Whitney U test. P-values less than 0.05 were considered significant.
Plasma dUrd was determined by a method comprising liquid chromatography followed by tandem mass spectrometry broadly summarized as follows. Plasma samples were removed from −80° C. freezer, trichloroacetic acid was added to the plasma, and the samples mixed and centrifuged. The supernatant was filtered in a 10 kDa molecular weight cut-off membrane filter and again centrifuged for 30 min. The solution at the bottom of the tube was then ready for LC-MS/MS analysis. […]

pancreas cancer = conditions: CoFactor combined with 5-FU, phase I/II trial; cited from earlier work

In the case of Nc1nc2c(c(=O)[nH]1)N1CN(c3ccc(C(=O)N[C@@H](CCC(=O)O)C(=O)O)cc3)C[C@@H]1CN2 (single isomer, unassigned) [(6S)-isomer], the “effect on the natural [6R]-isomer as co-substrate for TS” value (TS) is listed as “partial competitive inhibitor”.

In the case of O=c1[nH]cc(F)c(=O)[nH]1 [5-FU, 5-Fluorouracil], the overall response rate (colorectal cancer; 5-FU alone) is given as 10-15%.

In the case of Nc1nc2c(c(=O)[nH]1)N1CN(c3ccc(C(=O)N[C@@H](CCC(=O)O)C(=O)O)cc3)C[C@H]1CN2 [6R-MTHF, [6R]-5,10-methylenetetrahydrofolic acid], the “Mean (t24 − t0) plasma dUrd” value ([1]; 6R-MTHF 30 mg/m2 BSA bolus with 5-FU 500 mg/m2 bolus, 18 cycles) is reported as 74.7 pmol/mL, the “Mean (t24 − t0) plasma dUrd” value ([1]; 6R-MTHF 60 mg/m2 BSA bolus with 5-FU 500 mg/m2 bolus, 16 cycles) is reported as 91.8 pmol/mL and the “Mean (t24 − t0) plasma dUrd” value ([1]; 6R-MTHF 240 mg/m2 BSA bolus with 5-FU 500 mg/m2 bolus, 4 cycles) is reported as 99.9 pmol/mL. For the same molecule, the “level of dUrd compared with equimolar LV” value ([1]; [6R]-MTHF 30 mg/m2 vs LV 60 mg/m2, together with 5-FU, p=0.03) was “significantly higher level of dUrd”.

In the case of Nc1nc(=O)c2c([nH]1)NCC1CN(c3ccc(C(=O)N[C@@H](CCC(=O)[O-])C(=O)[O-])cc3)CN21.[Ca+2] (stereo partly drawn) [CoFactor®, (dl)-5,10,-methylenepteroyl-monoglutamate calcium salt], the response rate (colorectal cancer; Phase II trial, previously untreated metastatic colorectal cancer) is listed as 35%, the “efficacy and safety compared with leucovorin” value (colorectal cancer; Phase IIb study in colorectal cancer) is listed as “not demonstrated to be more efficacious than leucovorin” and the “clinical benefit (stable disease or tumor response), share of patients” value (pancreas cancer) is listed as 40%.

For Nc1nc(=O)c2c([nH]1)NC[C@H](CNc1ccc(C(=O)N[C@@H](CCC(=O)O)C(=O)O)cc1)N2C=O [LLV], the “Mean (t24 − t0) plasma dUrd” value ([1]; active dose 30 mg/m2 BSA LLV, given as 60 mg/m2 d,l-LV bolus, with 5-FU 500 mg/m2 bolus, 48 cycles) was 48.7 pmol/mL.

In the case of Nc1nc2c(c(=O)[nH]1)N(C=O)C(CNc1ccc(C(=O)N[C@@H](CCC(=O)O)C(=O)O)cc1)CN2 (some centres unmarked) [LV, 5-formyl tetrahydrofolate], the overall response rates (colorectal cancer; LV added to 5-FU) is listed as “over 20%”.
